“Also recorded” adds a separate entry of the source.
Assays:
[1] = tested on: Ras activation in Jurkat T cells; assay: GST-RBD pull down assay of active GTP-bound Ras; format: cell-based; settings: 25 μM, 24 h, then anti-CD-3ε stimulation
[2] = tested on: GFP-K-Ras in Jurkat T cells; assay: Subcellular localization of GFP-K-Ras by fluorescence microscopy; format: cell-based; settings: 0.1 μM, 24 hours
[3] = tested on: Erk phosphorylation in Jurkat T cells; assay: Signaling assay: anti-CD-3ε dependent Erk phosphorylation; format: cell-based; settings: 25 μM, 24 h, then anti-CD-3ε stimulation
[4] = molecular target: T1, hIcmt (Homo sapiens, UniProt O60725); assay: Kinetic mode of inhibition and KI determination
T1 sequence (O60725 whole entry, the tested form may be a part): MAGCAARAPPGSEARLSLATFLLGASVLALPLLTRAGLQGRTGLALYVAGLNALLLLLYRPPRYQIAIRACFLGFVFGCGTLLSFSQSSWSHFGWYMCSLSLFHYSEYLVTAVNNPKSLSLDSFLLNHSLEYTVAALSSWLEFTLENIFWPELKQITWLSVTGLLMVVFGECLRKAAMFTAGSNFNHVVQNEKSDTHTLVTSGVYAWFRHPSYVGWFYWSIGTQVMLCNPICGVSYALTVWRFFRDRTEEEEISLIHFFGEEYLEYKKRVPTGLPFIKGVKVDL

[5] = molecular target: T1, hIcmt; assay: In vitro vapor diffusion methyltransferase assay, inhibition of hIcmt; format: biochemical; settings: for Loss of inhibitory activity as compared to compound 1a: fold; for hIcmt inhibition (in words): 10 μM compound, 25 μM AFC
[6] = tested on: PC3 prostate cancer cells; settings: cited from earlier work
[7] = molecular target: T1, hIcmt; settings: read-out: IC50 against hIcmt; previously reported; cited from earlier work

In the case of `CC(C)=CC/C(=C/CSC[C@H](NC(=O)c1ccccc1Oc1ccccc1)C(=O)O)CCc1ccc(-c2ccccc2)cc1` [Compound 1b, N-2-Phenoxybenzoyl-S-3-(3-methyl-but-2-enyl)-5-(4-biphenyl)pent-2-enyl-L-cysteine], the Ras activation [1] is reported as “inhibited Ras activation significantly”, the “Prevention of GFP-K-Ras membrane localization” value [2] is reported as “approximately 35%” and the “Decrease of Erk activation compared to the control” value [3] is reported as “approximately three-fold”. For the same molecule, the Ki [4] was 0.5 ± 0.07 µM, the Mode of inhibition ([4]; AFC varied, inhibitor concentration fixed) was “mixed-mode inhibition; also recorded: mixed-type inhibition” and the α value ([4]; mixed-type inhibition, competitive component dominated) was “greater than 1”.

With `CC(C)=CCC/C(C)=C/CC/C(C)=C/CSC[C@H](NC(=O)c1ccccc1Cc1ccccc1)C(=O)O` [Compound 2c, (R)-2-(2-benzylbenzamido)-3-(((2E,6E)-3,7,11-trimethyldodeca-2,6,10-trien-1-yl)thio)propanoic acid] the “Loss of inhibitory activity as compared to compound 1a” value [5] was “roughly four-fold”.

With `CC(C)=CCC/C(C)=C/CC/C(C)=C/CSC[C@H](NC(=O)c1ccccc1Sc1ccccc1)C(=O)O` [Compound 2d, (R)-2-(2-(phenylthio)benzamido)-3-(((2E,6E)-3,7,11-trimethyldodeca-2,6,10-trien-1-yl)thio)propanoic acid] the “Loss of inhibitory activity as compared to compound 1a” value [5] was “roughly four-fold”.

For `CC(C)=CCC/C(C)=C/CC/C(C)=C/CC/C(C)=C/CSC[C@H](NC(=O)c1ccccc1Oc1ccccc1)C(=O)O` [Compound 19, (R)-2-(2-phenoxybenzamido)-3-(((2E,6E,10E)-3,7,11,15-tetramethylhexadeca-2,6,10,14-tetraen-1-yl)thio)propanoic acid], the “hIcmt inhibition (in words)” value [5] was “significant loss of hIcmt inhibition”.

For `CC(C)=CCC/C(C)=C/CC/C(C)=C/CSC[C@@H](C(=O)O)N(C)C(=O)c1ccccc1Oc1ccccc1` [Compound 20, (R)-2-(N-methyl-2-phenoxybenzamido)-3-(((2E,6E)-3,7,11-trimethyldodeca-2,6,10-trien-1-yl)thio)propanoic acid], the “hIcmt inhibition (in words)” value [5] was “equivalent to our previous lead, 1a, in terms of percent inhibition”.

In the case of `CCCCCCCCCCCSC[C@H](NC(=O)c1ccccc1Oc1ccccc1)C(=O)O` [Compound 21, ((R)-2-(2-phenoxybenzamido)-3-(undecylthio)propanoic acid)], the “hIcmt inhibition (in words)” value [5] is reported as “particularly poor inhibitor of hIcmt”.

In the case of `CCCCCCCCn1cc(CC(N)=O)c2cc(-c3cccc(C)c3)ccc21` [Cysmethynil], the “Effect on PC3 prostate cancer cells” value [6] is given as “induction of autophagic cell death”.

For “anthranilic farnesylcysteine [anthranilic acid analog]”, the IC50 [7] is given as 7.1 µM.

— article PMC3382068 (Bioorganic & medicinal chemistry, 2011)
